According to patent publication US5210193A, “Piperazine derivatives” (American Cyanamid Company, priority 1990, dated 1993):
In brackets after ≈: the same amount, converted by molar mass.

Key:
[1] = tested on: Morganella morganii VGH 84-11; assay: in vitro antibacterial MIC, agar plate dilution; assay type: cell-based; conditions: VGH8411, 18 hours, 35° C., read-out: MIC
Procedure: (§1) The in vitro antimicrobial spectrum of the compounds of ths invention were determined by the agar plate dilution method with Mueller-Hinton agar and an inoculum of each test organism of approximately 10^4 colony forming units delivered by the Steers replicating device. The minimal inhibitory concentration (MIC) in mcg/ml is defined as the lowest concentration of test compound that inhibited visible growth after 18 hours incubation at 35° C. Results are given in Table I, with the test compounds identified by the number of their hereinafter described examples.

[2] = tested on: Klebsiella pneumoniae MOR 84-4; assay: in vitro antibacterial MIC, agar plate dilution; assay type: cell-based; conditions: Klebsiella pneumoniae, MOR844, 18 h, 35° C., read-out: MIC
Procedure: as §1

Klebsiella pneumoniae AD [3] = assay: in vitro antibacterial MIC, agar plate dilution; assay type: cell-based; conditions: Klebsiella pneumoniae, 18 h, 35° C., read-out: MIC
Procedure: as §1

[4] = tested on: Escherichia coli CMC 84-11; assay: in vitro antibacterial MIC, agar plate dilution; assay type: cell-based; conditions: Escherichia coli, CMC8411, 18 h, 35° C., read-out: MIC
Procedure: as §1

[5] = tested on: Staphylococcus aureus Smith; assay: in vitro antibacterial MIC, agar plate dilution; assay type: cell-based; conditions: Staphylococcus aureus, 18 h, 35° C., read-out: MIC
Procedure: as §1

[6] = tested on: Pseudomonas aeruginosa VGH 84-4; assay: in vitro antibacterial MIC, agar plate dilution; assay type: cell-based; conditions: Pseudomonas aeruginosa, VGH844, 18 h, 35° C., read-out: MIC
Procedure: as §1

[7] = tested on: Streptococcus faecalis ATTC 29212; assay: in vitro antibacterial MIC, agar plate dilution; assay type: cell-based; conditions: Enterococcus faecalis, ATTC29212, 18 hours, 35° C., read-out: MIC
Procedure: as §1

[8] = tested on: Proteus rettgeri CMC 84-41; assay: in vitro antibacterial MIC, agar plate dilution; assay type: cell-based; conditions: Providencia rettgeri, CMC8441, 18 h, 35° C., read-out: MIC
Procedure: as §1

[9] = tested on: Staphylococcus aureus ATCC 25913; assay: in vitro antibacterial MIC, agar plate dilution; assay type: cell-based; conditions: ATCC25913, 18 hours, 35° C.
Procedure: as §1

[10] = tested on: Enterobacter cloacae VGH 84-37; assay: in vitro antibacterial MIC, agar plate dilution; assay type: cell-based; conditions: Enterobacter cloacae, VGH8437, 18 h, 35° C., read-out: MIC
Procedure: as §1

[11] = tested on: Enterobacter aerogenes VGH 84-36; assay: in vitro antibacterial MIC, agar plate dilution; assay type: cell-based; conditions: Klebsiella aerogenes, VGH8436, 18 hours, 35° C., read-out: MIC
Procedure: as §1

[12] = tested on: Escherichia coli ATCC 25922; assay: in vitro antibacterial MIC, agar plate dilution; assay type: cell-based; conditions: Escherichia coli, ATCC25922, 18 h, 35° C., read-out: MIC
Procedure: as §1

Klebsiella pneumoniae AD [13] = assay: in vivo antibacterial activity, survival of infected mice (Table II); set-up: species or system Charles River CD-1 mice; conditions: subcutaneous
Procedure: Charles River CD-1 mice were infected with either Klebsiella pneumoniae AD or Staphylococcus aureus Smith. A single subcutaneous dose of the test compound was administered 1/2 hour after infection. […] The results appear in Tables II and III, wherein the representative test compounds are identified by the number of their hereinafter described examples.

MIC [1] [µg/mL]	MIC [2] [µg/mL]	MIC (Klebsiella pneumoniae AD [3]) [µg/mL]	MIC [4] [µg/mL]	MIC [5] [µg/mL]	MIC [6] [µg/mL]	MIC [7] [µg/mL]	MIC [8] [µg/mL]	MIC [9] [µg/mL]	MIC [10] [µg/mL]	MIC [11] [µg/mL]	MIC [12] [µg/mL]	Structure (SMILES)	Survival Ratio 7 Days After Infection (Klebsiella pneumoniae AD [13]; 0.25 mg/kg single dose)	Survival Ratio 7 Days After Infection (Klebsiella pneumoniae AD [13]; 1 mg/kg single dose)	Survival Ratio 7 Days After Infection (Klebsiella pneumoniae AD [13]; 4 mg/kg single dose)	Survival Ratio 7 Days After Infection (Klebsiella pneumoniae AD [13]; 16 mg/kg single dose)	Survival Ratio 7 Days After Infection (Klebsiella pneumoniae AD [13]; 64 mg/kg single dose)	Survival Ratio 7 Days After Infection (Klebsiella pneumoniae AD [13]; 0.5 mg/kg single dose)	Survival Ratio 7 Days After Infection (Klebsiella pneumoniae AD [13]; 2 mg/kg single dose)	Survival Ratio 7 Days After Infection (Klebsiella pneumoniae AD [13]; 8 mg/kg single dose)
2 (≈ 4.66 µM)	2 (≈ 4.66 µM)	1 (≈ 2.33 µM)	1 (≈ 2.33 µM)	0.25 (≈ 0.582 µM)	32 (≈ 74.5 µM)	0.25 (≈ 0.582 µM)	2 (≈ 4.66 µM)	0.25 (≈ 0.582 µM)	2 (≈ 4.66 µM)	2 (≈ 4.66 µM)	1 (≈ 2.33 µM)	CCn1cc(C(=O)O)c(=O)c2cc(F)c(N3CCNC(c4cc(C)sc4C)C3)cc21 (stereo not shown) [Example 48, 7-[3-(2,5-Dimethyl-3-thienyl)-1-piperazinyl]-1-ethyl-6-fluoro-1,4-dihydro-4-oxo-3-quinolinecarboxylic acid]	–	–	–	–	–	–	–	–
256 (≈ 475 µM)	256 (≈ 475 µM)	64 (≈ 119 µM)	64 (≈ 119 µM)	0.5 (≈ 0.928 µM)	> 256	64 (≈ 119 µM)	256 (≈ 475 µM)	1 (≈ 1.86 µM)	256 (≈ 475 µM)	256 (≈ 475 µM)	32 (≈ 59.4 µM)	CCn1cc(C(=O)O)c(=O)c2cc(F)c(N3CCN(C)C(c4ccn(S(=O)(=O)c5ccccc5)c4)C3)cc21 (stereo not shown) [Example 49]	–	–	–	–	–	–	–	–
1 (≈ 2.74 µM)	1 (≈ 2.74 µM)	0.5 (≈ 1.37 µM)	0.5 (≈ 1.37 µM)	0.5 (≈ 1.37 µM)	2 (≈ 5.47 µM)	8 (≈ 21.9 µM)	1 (≈ 2.74 µM)	0.5 (≈ 1.37 µM)	1 (≈ 2.74 µM)	2 (≈ 5.47 µM)	0.25 (≈ 0.684 µM)	CCn1cc(C(=O)O)c(=O)c2cc(F)c(N3CCN(C)C(CF)C3)cc21 (stereo not shown) [Example 25, 1-Ethyl-6-fluoro-7-[3-(fluoromethyl)-4-methyl-1-piperazinyl]-1,4-dihydro-4-oxo-3-quinolinecarboxylic acid]	–	–	–	–	–	–	–	–
4 (≈ 7.63 µM)	8 (≈ 15.3 µM)	4 (≈ 7.63 µM)	4 (≈ 7.63 µM)	0.25 (≈ 0.477 µM)	> 256	4 (≈ 7.63 µM)	4 (≈ 7.63 µM)	0.5 (≈ 0.953 µM)	4 (≈ 7.63 µM)	16 (≈ 30.5 µM)	2 (≈ 3.81 µM)	CCn1cc(C(=O)O)c(=O)c2cc(F)c(N3CCNC(c4ccn(S(=O)(=O)c5ccccc5)c4)C3)cc21 (stereo not shown) [Example 44, 1-Ethyl-6-fluoro-1,4-dihydro-4-oxo-7-[3-[1-(phenylsulfonyl)-1H-pyrrol-3-yl]-1-piperazinyl]-3-quinolinecarboxylic acid]	–	–	–	–	–	–	–	–
≤ 0.12	≤ 0.12	≤ 0.12	≤ 0.12	≤ 0.12	2 (≈ 5.69 µM)	2 (≈ 5.69 µM)	≤ 0.12	≤ 0.12	≤ 0.12	≤ 0.12	≤ 0.12	CCn1cc(C(=O)O)c(=O)c2cc(F)c(N3CCNC(CF)C3)cc21 (stereo not shown) [Example 24]	–	–	–	–	–	–	–	–
–	–	–	–	–	–	–	–	–	–	–	–	Clc1ccc2oc(C3CNCCN3)cc2c1 (stereo not shown) [Example 17, 2-(5-Chloro-2-benzofuranyl)piperazine]	0/5	0/5	1/5	5/5	–	0/5	0/5	5/5
> 256	> 256	> 256	> 256	> 256	> 256	> 256	> 256	> 256	> 256	> 256	> 256	CCn1cc(C(=O)O)c(=O)c2cc(F)c(N3CCNC(c4sc5ccc(Cl)cc5c4C)C3)cc21 (stereo not shown) [Example 20, 7-[3-(5-Chloro-3-methylbenzo[b]thien-2-yl)-1-piperazinyl]-1-ethyl-6-fluoro-1,4-dihydro-4-oxo-3-quinolinecarboxylic acid]	–	–	–	–	–	–	–	–
8 (≈ 17 µM)	16 (≈ 34 µM)	8 (≈ 17 µM)	8 (≈ 17 µM)	0.5 (≈ 1.06 µM)	> 256	32 (≈ 68 µM)	8 (≈ 17 µM)	1 (≈ 2.13 µM)	16 (≈ 34 µM)	64 (≈ 136 µM)	8 (≈ 17 µM)	CCn1cc(C(=O)O)c(=O)c2cc(F)c(N3CCNC(c4cc(Cl)sc4Cl)C3)cc21 (stereo not shown) [Example 51]	–	–	–	–	–	–	–	–
–	–	–	–	–	–	–	–	–	–	–	–	CN(C)CC1CNCCN1 (stereo not shown) [Example 1, N,N-Dimethyl-2-piperazinemethanamine]	0/5	0/5	1/5	5/5	–	–	–	–
0.5 (≈ 1.15 µM)	1 (≈ 2.3 µM)	0.5 (≈ 1.15 µM)	0.25 (≈ 0.574 µM)	≤ 0.12	8 (≈ 18.4 µM)	1 (≈ 2.3 µM)	0.5 (≈ 1.15 µM)	≤ 0.12	0.5 (≈ 1.15 µM)	1 (≈ 2.3 µM)	0.25 (≈ 0.574 µM)	CCn1cc(C(=O)O)c(=O)c2cc(F)c(N3CCNC(c4cc5ccccc5o4)C3)cc21 (stereo not shown) [Example 46, 7-[3-(2-Benzofuranyl)-1-piperazinyl]-1-ethyl-6-fluoro-1,4-dihydro-4-oxo-3-quinolinecarboxylic acid]	–	–	–	–	–	–	–	–

Structure (SMILES)	MIC [1] [µg/mL]	MIC [2] [µg/mL]	MIC (Klebsiella pneumoniae AD [3]) [µg/mL]	MIC [4] [µg/mL]	MIC [5] [µg/mL]	MIC [6] [µg/mL]	MIC [7] [µg/mL]	MIC [8] [µg/mL]	MIC [9] [µg/mL]	MIC [10] [µg/mL]	MIC [11] [µg/mL]	MIC [12] [µg/mL]	Survival Ratio 7 Days After Infection (Klebsiella pneumoniae AD [13]; 0.25 mg/kg single dose)	Survival Ratio 7 Days After Infection (Klebsiella pneumoniae AD [13]; 1 mg/kg single dose)	Survival Ratio 7 Days After Infection (Klebsiella pneumoniae AD [13]; 4 mg/kg single dose)	Survival Ratio 7 Days After Infection (Klebsiella pneumoniae AD [13]; 16 mg/kg single dose)	Survival Ratio 7 Days After Infection (Klebsiella pneumoniae AD [13]; 64 mg/kg single dose)	Survival Ratio 7 Days After Infection (Klebsiella pneumoniae AD [13]; 0.5 mg/kg single dose)	Survival Ratio 7 Days After Infection (Klebsiella pneumoniae AD [13]; 2 mg/kg single dose)	Survival Ratio 7 Days After Infection (Klebsiella pneumoniae AD [13]; 8 mg/kg single dose)
CCn1cc(C(=O)O)c(=O)c2cc(F)c(N3CCNC(CN4CCN(C)CC4)C3)cc21 (stereo not shown) [Example 4, 1-Ethyl-6-fluoro 1,4-dihydro-7-[3-[(4-methyl-1-piperazinyl)methyl]-1-piperazinyl]-4-oxo-3-quinolinecarboxylic acid]	4 (≈ 9.27 µM)	16 (≈ 37.1 µM)	8 (≈ 18.5 µM)	8 (≈ 18.5 µM)	8 (≈ 18.5 µM)	64 (≈ 148 µM)	–	32 (≈ 74.2 µM)	64 (≈ 148 µM)	4 (≈ 9.27 µM)	16 (≈ 37.1 µM)	8 (≈ 18.5 µM)	0/5	0/5	4/5	5/5	5/5	–	–	–
CCn1cc(C(=O)O)c(=O)c2cc(F)c(N3CCNC(c4sccc4C)C3)cc21 (stereo not shown) [Example 16, 1-Ethyl-6-fluoro-1,4-dihydro-7-[3-(3-methyl-2-thienyl)-1-piperazinyl]-4-oxo-3-quinolinecarboxylic acid]	4 (≈ 9.63 µM)	8 (≈ 19.3 µM)	4 (≈ 9.63 µM)	4 (≈ 9.63 µM)	0.5 (≈ 1.2 µM)	> 256	–	8 (≈ 19.3 µM)	1 (≈ 2.41 µM)	8 (≈ 19.3 µM)	8 (≈ 19.3 µM)	8 (≈ 19.3 µM)	0/5	0/5	1/5	1/5	–	–	–	–
CCn1cc(C(=O)O)c(=O)c2cc(F)c(N3CCNC(CO)C3)cc21.Cl (stereo not shown) [Example 5, 1-Ethyl-6-fluoro-1,4-dihydro-7[3-(hydroxymethyl)-1-piperazinyl]-4-oxo-3-quinolinecarboxylic acid, hydrochloride]	0.5	2	0.5	1	8	8	–	1	32	1	16	2	0/5	0/5	0/5	0/5	5/5	–	–	–
